How the values were obtained:
[1] = system: mice with established Type II collagen arthritis; test: 11 day male DBA/1J mouse established Type II collagen arthritis; assay type: in vivo; settings: for clinical symptoms of arthritis (clinical scoring in the paws) / bone loss (histologic scoring) / pannus formation (histologic scoring): mice n=16; for clinical symptoms of arthritis (clinical scoring in the paws): vs arthritic control, FIG. 2a; for bone loss (histologic scoring) / pannus formation (histologic scoring): FIG. 2b
Protocol: Male DBA/1J mice (7-9 weeks old on arrival; at least 7 weeks old at time of first immunization) were housed 5 per cage and were acclimated for enough days after arrival such that all animals were at least 7 weeks old at start of study.
Mice were anesthetized with Isoflurane and given intradermal collagen (2 mg/ml) injections at the base of the tail in a volume of 150 μl (D0 and D21). On days 21-35, onset of arthritis occurred and mice were randomized into treatment groups. Randomization into each group was done after swelling was obviously established in at least one paw, and attempts were made to assure approximately equal mean scores across the groups at time of enrollment. Treatment was initiated after enrollment and continued every day for a total of 10 days as outlined in Table 3. During the ten days of treatment, clinical scores were given for each of the paws (right front, left front, right rear, and left rear) according to the scoring methods provided below.
• 0 normal • 1 1 hind or fore paw joint affected or minimal diffuse erythema and swelling • 2 2 hind or fore paw joints affected or mild diffuse erythema and swelling • 3 3 hind or fore paw joints affected or moderate diffuse erythema and swelling • 4 Marked diffuse erythema and swelling, or 4 digit joints affected • 5 Severe diffuse erythema and severe swelling entire paw, unable to flex digits
All dose solutions were prepared to deliver 10 ml/kg (0.3 ml/30 g mouse). On day 11 of arthritis, animals were euthanized, and both fore and hind limbs with knees were removed, placed into formalin and then processed for microscopy. Following 1-2 days in fixative and then 4-5 days in decalcifier, the joints were processed, embedded, sectioned and stained with toluidine blue. (Only fore and hind paws and knees were initially processed—6 joints/mouse.)
When scoring paws or ankles from mice with lesions of type II collagen arthritis, severity of changes as well as number of individual joints affected must be considered. When only 1-3 joints of the paws or ankles out of a possibility of numerous metacarpal/metatarsal/digit or tarsal/tibiotarsal joints were affected, an arbitrary assignment of a maximum score of 1, 2 or 3 from the scoring scale below was given depending on severity of changes. If more than 3 joints were involved, the full scoring scale below was applied only to the most severely affected/majority of joints.
• 0 Normal • 1 Minimal infiltration of pannus in cartilage and subchondral bone • 2 Mild infiltration with marginal zone destruction of hard tissue in affected joints • 3 Moderate infiltration with moderate hard tissue destruction in affected joints • 4 Marked infiltration with marked destruction of joint architecture, most joints • 5 Severe infiltration associated with total or near total destruction of joint architecture, affects all joints
• 0 Normal • 1 Minimal—small areas of resorption, not readily apparent on low magnification, rare osteoclasts in affected joints • 2 Mild—more numerous areas of resorption, not readily apparent on low magnification, osteoclasts more numerous in affected joints • 3 Moderate—obvious resorption of medullary trabecular and cortical bone without full thickness defects in cortex, loss of some medullary trabeculae, lesion apparent on low magnification, osteoclasts more numerous in affected joints • 4 Marked—Full thickness defects in cortical bone, often with distortion of profile of remaining cortical surface, marked loss of medullary bone, numerous osteoclasts, affects most joints • 5 Severe—Full thickness defects in cortical bone and destruction of joint architecture of all joints
Histologic parameters (mean ±SE) for each group were analyzed for differences using the Chi Square Test and one way ANOVA. Significance was set at p≦0.05.

[2] = system: rats with CIA; test: Rat collagen-induced arthritis (CIA), knee histopathology scoring; assay type: in vivo; settings: rats n=9
Protocol: Female Lewis rats were anesthetized with 3-5% isoflurane and arthritis was induced by intradermal injection of 0.3 mL (100 μL at three different sites) of an emulsion containing 1.5 mg/mL of type II bovine collagen, CII (Elastin Products Inc., Cat# CM276), in incomplete Freund's adjuvant (IFA) at the base of the tail on day 0 and 6. Control rats were injected with an equal amount of IFA only.
The volume of both hind paws were measured using a water displacement plethysmometer (Ugo Basile, Biological Research Apparatus, Italy), and the onset of arthritis was indicated by increased paw volume, which appeared approximately on day 11 post injection. Both paw volumes and body weights were measured throughout the study every 2-3 days. Nineteen to twenty-one days after CII injection, the rats were euthanized with CO2. Blood was collected by cardiac puncture and serum was saved.
Bovine Type II collagen for tissue culture was purchased from Chondrex (Cat# 2022) and was reconstituted according to the manufacturer's instructions. All data were processed and analyzed by t-test using GraphPad Prism software.
After the animals were euthanized, both hind paws and knees were removed, hind paws were weighed, and the paws and knees were placed in formalin. Following 1-2 days in fixative and 4-5 days in decalcifier, the ankle joints were cut in half longitudinally, and the knees were cut in half in the frontal plane. The joints were then processed, embedded, sectioned and stained with toluidine blue. Collagen arthritic ankles and knees were given scores of 0-5 for inflammation, pannus formation and bone resorption according to the following criteria:
• 0 Normal • 1 Minimal infiltration of inflammatory cells in periarticular tissue • 2 Mild infiltration • 3 Moderate infiltration with moderate edema • 4 Marked infiltration with marked edema • 5 Severe infiltration with severe edema
• 0 Normal • 1 Minimal infiltration of pannus in cartilage and subchondral bone • 2 Mild infiltration (extends over up to ¼ of surface or subchondral area of tibia or femur) • 3 Moderate infiltration (extends over >¼ but <½ of surface or subchondral area of tibia or femur) • 4 Marked infiltration (extends over ½ to ¾ of tibial or femoral surface) • 5 Severe infiltration (covers >¾ of surface)
• 0 Normal • 1 Minimal: minimal to mild loss of toluidine blue staining with no obvious chondrocyte loss or collagen disruption • 2 Mild: mild loss of toluidine blue staining with focal mild (superficial) chondrocyte loss and/or collagen disruption • 3 Moderate: moderate loss of toluidine blue staining with multifocal to diffuse moderate (depth to middle zone) chondrocyte loss and/or collagen disruption • 4 Marked: marked loss of toluidine blue staining with multifocal to diffuse marked (depth to deep zone) chondrocyte loss and/or collagen disruption • 5 Severe: severe diffuse loss of toluidine blue staining with multifocal severe (depth to tide mark) chondrocyte loss and/or collagen disruption on both femur and tibia
• 0 Normal • 1 Minimal: small areas of resorption, not readily apparent on low magnification, rare osteoclasts • 2 Mild: more numerous areas of resorption, definite loss of subchondral bone involving ¼ of tibial or femoral surface (medial or lateral) • 3 Moderate: obvious resorption of subchondral bone involving >¼ but <½ of tibial or femoral surface (medial or lateral) • 4 Marked: obvious resorption of subchondral bone involving ≧½ but <¾ of tibial or femoral surface (medial or lateral) • 5 Severe: distortion of entire joint due to destruction involving >¾ of tibial or femoral surface (medial or lateral)

[3] = 0.5 μg/kg once daily i.v., vs vehicle control
[4] = 5.0 μg/kg once daily i.v., vs vehicle control
[5] = 0.3 mg/kg twice daily i.v., days 8 to 19, FIG. 3

CC[C@@H](O)/C=C/C=C\C[C@@H](O)/C=C/C=C/C=C\[C@@H](O)CCCC(=O)O [Compound X]
score of bone damage (histologic scoring in joints) ([1]; mice n=15, 5 μg/kg twice daily iv, vs vehicle control, FIG. 1): significant decrease
clinical symptoms of arthritis (clinical scoring in the paws) ([1]; 0.5 μg/kg once daily i.v.): inhibited
bone loss (histologic scoring) [1, 3]: reduced
pannus formation (histologic scoring) [1, 3]: reduced
clinical symptoms of arthritis (clinical scoring in the paws) ([1]; 5.0 μg/kg once daily i.v.): inhibited
bone loss (histologic scoring) [1, 4]: reduced
pannus formation (histologic scoring) [1, 4]: reduced
bone resorption (knee histopathology scoring) [2, 5]: significant reduction
cartilage damage (knee histopathology scoring) [2, 5]: significant reduction
inflammation (knee histopathology scoring) [2, 5]: significant reduction
pannus (knee histopathology scoring) [2, 5]: significant reduction
knee histopathology scores ([2]; therapeutic dosing, FIG. 3): significantly reduced
bone resorption ([2]; therapeutic dosing, FIG. 4): protected
joint damage ([2]; therapeutic dosing, FIG. 4): protected
